US20260240847A1, “COMPOUNDS WITH ANTI-TUMOR ACTIVITY AGAINST CANCER CELLS BEARING TYROSINE KINASE INHIBITOR RESISTANT EGFR MUTATIONS” (BOARD OF REGENTS, THE UNIVERSITY OF TEXAS SYSTEM, priority 2019, published 2026)
pIC50: −log10 of the molar value.

Assays:
Experiment in all cases: Ba/F3 cell viability, Cell Titer Glo
EGFR L858R/L718V = EGFR L858R/L718V (Homo sapiens, UniProt P00533, L718V/L858R); conditions: read-out: IC50 Values; Ba/F3 cells expressing EGFR L858R/L718V, 72 hours
Description: (§1) The transforming capability of the mutations was then evaluated by sustained cell viability following IL-3 deprivation. Activating EGFR mutant Ba/F3 cells were then screened against EGFR TKIs. Cell viability was determined by the Cell Titer Glo assay.
(§2) Ba/F3 cells expressing acquired atypical mutations spanning exons 18-21 were treated with inhibitors for 72 hours. […] Briefly, stable Ba/F3 cell lines were generated by retroviral transduction of Ba/F3 cell line for 12 hours. […] Three days after transduction, 2 μg/ml puromycin (Invitrogen) was added to the RPMI media. Cell lines were then grown in the absence of IL-3 for two weeks and cell viability was assessed every three days using the Cell Titer Glo assay (Progema).
(§3) Briefly, 2000-3000 cells per well were plated in 384-well plates (Greiner Bio-One) in technical triplicate. Cells were treated with seven different concentrations of tyrosine kinase inhibitors or vehicle alone at a final volume of 40 μL per well. After 3 days, 11 μL of Cell Titer Glo was added to each well. Plates were shaken for 15 minutes, and bioluminescence was determined using a FLUOstar OPTIMA multi-mode micro-plate reader (BMG LABTECH). Bioluminescence values were normalized to DMSO treated cells, and normalized values were plotted in GraphPad Prism using non-linear regression fit to normalized data with a variable slope.

EGFR S720P = EGFR S720P (Homo sapiens, UniProt P00533, S720P); conditions: read-out: IC50 Values; Ba/F3 cells expressing EGFR S720P, 72 hours
Description: (§4) Cell viability was determined by the Cell Titer Glo assay.
(§5) Briefly, stable Ba/F3 cell lines were generated by retroviral transduction of Ba/F3 cell line for 12 hours. […] Three days after transduction, 2 μg/ml puromycin (Invitrogen) was added to the RPMI media. Cell lines were then grown in the absence of IL-3 for two weeks and cell viability was assessed every three days using the Cell Titer Glo assay (Progema).
as §3

EGFR L858R G724S = EGFR L858R G724S (Homo sapiens, UniProt P00533, G724S/L858R); conditions: read-out: IC50 Values; Ba/F3 cells expressing EGFR L858R G724S, 72 hours
Description: as §1, §2, §3

EGFR L718Q T790M = EGFR L718Q T790M (Homo sapiens, UniProt P00533, L718Q/T790M); conditions: read-out: IC50 Values; Ba/F3 cells expressing EGFR L718Q T790M, 72 hours
Description: as §4, §5, §3

EGFR l740duplPVAK = EGFR l740duplPVAK (Homo sapiens, UniProt P00533, DUP740-745); conditions: read-out: IC50 Values; Ba/F3 cells expressing EGFR l740duplPVAK, 72 hours
Description: as §4, §5, §3

EGFR Ex19del L718Q = EGFR Ex19del L718Q (Homo sapiens, UniProt P00533, DEL746-750/L718Q); conditions: read-out: IC50 Values; Ba/F3 cells expressing EGFR Ex19del L718Q, 72 hours
Description: as §1, §2, §3

EGFR L858R T790M V843I = EGFR L858R T790M V843I (Homo sapiens, UniProt P00533, L858R/T790M/V843I); conditions: read-out: IC50 Values; Ba/F3 cells expressing EGFR L858R T790M V843I, 72 hours
Description: as §4, §5, §3

EGFR L858R/L792H = EGFR L858R/L792H (Homo sapiens, UniProt P00533, L792H/L858R); conditions: read-out: IC50 Values; Ba/F3 cells expressing EGFR L858R/L792H, 72 hours
Description: as §1, §2, §3

EGFR G719A/R776C = EGFR G719A/R776C (Homo sapiens, UniProt P00533, G719A/R776C); conditions: read-out: IC50 Values; Ba/F3 cells expressing EGFR G719A/R776C, 72 hours
Description: as §4, §3

EGFR S768I/V769L = EGFR S768I/V769L (Homo sapiens, UniProt P00533, S768I/V769L); conditions: read-out: IC50 Values; Ba/F3 cells expressing EGFR S768I/V769L, 72 hours
Description: as §4, §5, §3

EGFR Ex19del L718V = EGFR Ex19del L718V (Homo sapiens, UniProt P00533, DEL746-750/L718V); conditions: read-out: IC50 Values; Ba/F3 cells expressing EGFR Ex19del L718V, 72 hours
Description: as §1, §2, §3

EGFR Ex19delT790M L718V = EGFR Ex19delT790M L718V (Homo sapiens, UniProt P00533, DEL746-750/L718V/T790M); conditions: read-out: IC50 Values; Ba/F3 cells expressing EGFR Ex19delT790M L718V, 72 hours
Description: as §4, §5, §3

EGFR L861Q = EGFR L861Q (Homo sapiens, UniProt P00533, L861Q); conditions: read-out: IC50 Values; Ba/F3 cells expressing EGFR L861Q, 72 hours
Description: as §4, §5, §3

EGFR E709K G719S = EGFR E709K G719S (Homo sapiens, UniProt P00533, E709K/G719S); conditions: read-out: IC50 Values; Ba/F3 cells expressing EGFR E709K G719S, 72 hours
Description: as §4, §5, §3

EGFR L747S = EGFR L747S (Homo sapiens, UniProt P00533, L747S); conditions: read-out: IC50 Values; Ba/F3 cells expressing EGFR L747S, 72 hours
Description: as §4, §5, §3

EGFR L718Q = EGFR L718Q (Homo sapiens, UniProt P00533, L718Q); conditions: read-out: IC50 Values; Ba/F3 cells expressing EGFR L718Q, 72 hours
Description: as §4, §5, §3

EGFR N771dupN G724S = EGFR N771dupN G724S (Homo sapiens, UniProt P00533, DUP771-771/G724S); conditions: read-out: IC50 Values; Ba/F3 cells expressing EGFR N771dupN G724S, 72 hours
Description: as §4, §5, §3

EGFR S768I V774M = EGFR S768I V774M (Homo sapiens, UniProt P00533, S768I/V774M); conditions: read-out: IC50 Values; Ba/F3 cells expressing EGFR S768I V774M, 72 hours
Description: as §4, §5, §3

EGFR E709K L858R = EGFR E709K L858R (Homo sapiens, UniProt P00533, E709K/L858R); conditions: read-out: IC50 Values; Ba/F3 cells expressing EGFR E709K L858R, 72 hours
Description: as §4, §5, §3

EGFR H773insNPH = EGFR H773insNPH (Homo sapiens, UniProt P00533, INS773NPH); conditions: read-out: IC50 Values; Ba/F3 cells expressing EGFR H773insNPH, 72 hours
Description: as §4, §5, §3

EGFR Ex19del L718Q, sequence (P00533 with tags, fused parts or gaps L718Q/DEL746-750): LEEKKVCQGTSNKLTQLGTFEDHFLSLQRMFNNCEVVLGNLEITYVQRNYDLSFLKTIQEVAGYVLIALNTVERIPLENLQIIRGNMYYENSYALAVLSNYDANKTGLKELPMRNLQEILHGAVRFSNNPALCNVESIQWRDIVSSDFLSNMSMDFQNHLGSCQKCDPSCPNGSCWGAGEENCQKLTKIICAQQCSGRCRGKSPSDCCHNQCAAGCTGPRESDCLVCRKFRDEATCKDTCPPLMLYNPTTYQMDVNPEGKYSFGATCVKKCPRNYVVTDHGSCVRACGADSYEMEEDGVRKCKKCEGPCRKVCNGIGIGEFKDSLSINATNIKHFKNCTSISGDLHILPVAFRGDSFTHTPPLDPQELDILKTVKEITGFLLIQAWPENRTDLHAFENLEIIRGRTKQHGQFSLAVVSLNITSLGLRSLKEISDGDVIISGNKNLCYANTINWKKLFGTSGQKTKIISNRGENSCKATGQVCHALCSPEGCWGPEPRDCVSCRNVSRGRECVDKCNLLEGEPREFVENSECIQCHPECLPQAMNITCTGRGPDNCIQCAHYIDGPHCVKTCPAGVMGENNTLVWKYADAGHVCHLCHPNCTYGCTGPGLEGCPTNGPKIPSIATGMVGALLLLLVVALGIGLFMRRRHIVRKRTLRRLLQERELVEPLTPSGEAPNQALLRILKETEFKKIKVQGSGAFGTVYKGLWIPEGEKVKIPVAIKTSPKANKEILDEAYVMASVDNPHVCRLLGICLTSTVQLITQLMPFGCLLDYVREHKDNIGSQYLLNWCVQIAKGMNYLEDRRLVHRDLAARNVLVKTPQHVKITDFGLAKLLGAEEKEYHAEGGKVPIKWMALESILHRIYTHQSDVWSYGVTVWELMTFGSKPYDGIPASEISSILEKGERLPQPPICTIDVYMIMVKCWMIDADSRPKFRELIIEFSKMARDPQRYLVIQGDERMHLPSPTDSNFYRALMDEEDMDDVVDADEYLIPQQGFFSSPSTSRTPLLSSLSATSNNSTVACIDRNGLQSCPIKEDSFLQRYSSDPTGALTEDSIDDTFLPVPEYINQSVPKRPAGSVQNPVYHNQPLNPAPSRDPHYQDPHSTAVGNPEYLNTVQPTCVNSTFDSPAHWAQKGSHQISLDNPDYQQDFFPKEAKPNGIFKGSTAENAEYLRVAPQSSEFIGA
EGFR L718Q, sequence (P00533 25-1210 L718Q): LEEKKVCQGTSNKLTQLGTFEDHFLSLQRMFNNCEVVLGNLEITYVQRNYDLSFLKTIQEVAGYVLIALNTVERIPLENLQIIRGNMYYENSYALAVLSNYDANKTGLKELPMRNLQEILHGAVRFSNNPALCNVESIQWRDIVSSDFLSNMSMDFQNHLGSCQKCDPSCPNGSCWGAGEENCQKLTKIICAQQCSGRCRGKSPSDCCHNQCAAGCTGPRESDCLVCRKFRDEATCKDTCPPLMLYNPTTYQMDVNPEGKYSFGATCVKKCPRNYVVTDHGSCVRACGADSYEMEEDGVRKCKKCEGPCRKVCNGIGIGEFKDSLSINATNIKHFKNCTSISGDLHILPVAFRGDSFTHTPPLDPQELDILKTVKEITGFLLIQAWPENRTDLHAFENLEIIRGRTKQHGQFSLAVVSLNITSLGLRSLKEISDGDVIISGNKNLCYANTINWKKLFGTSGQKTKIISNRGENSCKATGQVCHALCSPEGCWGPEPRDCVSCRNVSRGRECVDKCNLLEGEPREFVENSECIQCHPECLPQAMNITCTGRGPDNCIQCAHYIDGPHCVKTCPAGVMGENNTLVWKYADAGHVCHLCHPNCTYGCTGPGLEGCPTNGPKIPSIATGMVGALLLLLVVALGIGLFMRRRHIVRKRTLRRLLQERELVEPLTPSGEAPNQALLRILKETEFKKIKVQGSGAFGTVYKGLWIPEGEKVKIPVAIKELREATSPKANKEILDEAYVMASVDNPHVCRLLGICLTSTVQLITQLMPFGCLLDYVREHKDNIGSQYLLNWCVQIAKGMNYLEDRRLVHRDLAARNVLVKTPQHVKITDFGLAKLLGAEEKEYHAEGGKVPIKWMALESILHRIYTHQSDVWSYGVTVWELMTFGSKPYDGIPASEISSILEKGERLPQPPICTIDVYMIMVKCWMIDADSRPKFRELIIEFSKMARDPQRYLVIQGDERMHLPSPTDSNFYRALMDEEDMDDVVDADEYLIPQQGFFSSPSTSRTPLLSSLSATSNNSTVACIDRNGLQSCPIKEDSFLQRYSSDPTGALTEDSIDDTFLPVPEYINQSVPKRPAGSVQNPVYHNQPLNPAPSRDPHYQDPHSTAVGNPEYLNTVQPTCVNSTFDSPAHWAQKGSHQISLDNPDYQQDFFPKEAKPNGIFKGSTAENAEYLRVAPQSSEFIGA
EGFR L858R T790M V843I, sequence (P00533 25-1210 T790M/V843I/L858R): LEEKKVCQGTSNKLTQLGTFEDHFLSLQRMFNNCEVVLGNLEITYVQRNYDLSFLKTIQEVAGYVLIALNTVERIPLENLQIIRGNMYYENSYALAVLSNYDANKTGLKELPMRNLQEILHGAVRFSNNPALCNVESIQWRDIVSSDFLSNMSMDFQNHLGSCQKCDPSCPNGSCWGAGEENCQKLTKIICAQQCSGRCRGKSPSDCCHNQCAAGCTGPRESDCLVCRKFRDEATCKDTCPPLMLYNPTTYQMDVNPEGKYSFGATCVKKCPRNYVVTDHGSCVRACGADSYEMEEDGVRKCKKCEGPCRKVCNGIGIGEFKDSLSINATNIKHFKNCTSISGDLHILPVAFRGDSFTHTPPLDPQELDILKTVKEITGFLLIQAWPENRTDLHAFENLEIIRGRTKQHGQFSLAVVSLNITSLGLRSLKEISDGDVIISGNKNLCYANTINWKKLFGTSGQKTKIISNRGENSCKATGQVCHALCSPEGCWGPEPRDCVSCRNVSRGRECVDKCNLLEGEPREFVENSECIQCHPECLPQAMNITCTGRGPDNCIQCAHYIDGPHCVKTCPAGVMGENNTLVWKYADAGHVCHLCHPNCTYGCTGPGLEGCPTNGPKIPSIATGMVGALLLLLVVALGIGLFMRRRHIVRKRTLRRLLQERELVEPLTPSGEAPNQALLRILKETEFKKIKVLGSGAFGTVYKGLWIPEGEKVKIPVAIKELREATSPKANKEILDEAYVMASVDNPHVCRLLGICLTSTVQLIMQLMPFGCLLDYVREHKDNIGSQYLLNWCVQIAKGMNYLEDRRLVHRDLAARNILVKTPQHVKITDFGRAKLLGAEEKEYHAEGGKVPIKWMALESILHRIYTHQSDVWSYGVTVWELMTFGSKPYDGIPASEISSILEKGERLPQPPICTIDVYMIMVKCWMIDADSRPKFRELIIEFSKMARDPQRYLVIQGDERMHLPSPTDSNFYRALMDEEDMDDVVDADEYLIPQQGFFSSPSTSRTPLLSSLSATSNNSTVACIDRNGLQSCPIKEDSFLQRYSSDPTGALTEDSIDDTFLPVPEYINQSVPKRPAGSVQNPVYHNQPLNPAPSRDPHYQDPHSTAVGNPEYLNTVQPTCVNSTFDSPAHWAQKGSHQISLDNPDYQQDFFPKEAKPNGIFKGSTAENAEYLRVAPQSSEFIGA
EGFR L858R G724S, sequence (P00533 25-1210 G724S/L858R): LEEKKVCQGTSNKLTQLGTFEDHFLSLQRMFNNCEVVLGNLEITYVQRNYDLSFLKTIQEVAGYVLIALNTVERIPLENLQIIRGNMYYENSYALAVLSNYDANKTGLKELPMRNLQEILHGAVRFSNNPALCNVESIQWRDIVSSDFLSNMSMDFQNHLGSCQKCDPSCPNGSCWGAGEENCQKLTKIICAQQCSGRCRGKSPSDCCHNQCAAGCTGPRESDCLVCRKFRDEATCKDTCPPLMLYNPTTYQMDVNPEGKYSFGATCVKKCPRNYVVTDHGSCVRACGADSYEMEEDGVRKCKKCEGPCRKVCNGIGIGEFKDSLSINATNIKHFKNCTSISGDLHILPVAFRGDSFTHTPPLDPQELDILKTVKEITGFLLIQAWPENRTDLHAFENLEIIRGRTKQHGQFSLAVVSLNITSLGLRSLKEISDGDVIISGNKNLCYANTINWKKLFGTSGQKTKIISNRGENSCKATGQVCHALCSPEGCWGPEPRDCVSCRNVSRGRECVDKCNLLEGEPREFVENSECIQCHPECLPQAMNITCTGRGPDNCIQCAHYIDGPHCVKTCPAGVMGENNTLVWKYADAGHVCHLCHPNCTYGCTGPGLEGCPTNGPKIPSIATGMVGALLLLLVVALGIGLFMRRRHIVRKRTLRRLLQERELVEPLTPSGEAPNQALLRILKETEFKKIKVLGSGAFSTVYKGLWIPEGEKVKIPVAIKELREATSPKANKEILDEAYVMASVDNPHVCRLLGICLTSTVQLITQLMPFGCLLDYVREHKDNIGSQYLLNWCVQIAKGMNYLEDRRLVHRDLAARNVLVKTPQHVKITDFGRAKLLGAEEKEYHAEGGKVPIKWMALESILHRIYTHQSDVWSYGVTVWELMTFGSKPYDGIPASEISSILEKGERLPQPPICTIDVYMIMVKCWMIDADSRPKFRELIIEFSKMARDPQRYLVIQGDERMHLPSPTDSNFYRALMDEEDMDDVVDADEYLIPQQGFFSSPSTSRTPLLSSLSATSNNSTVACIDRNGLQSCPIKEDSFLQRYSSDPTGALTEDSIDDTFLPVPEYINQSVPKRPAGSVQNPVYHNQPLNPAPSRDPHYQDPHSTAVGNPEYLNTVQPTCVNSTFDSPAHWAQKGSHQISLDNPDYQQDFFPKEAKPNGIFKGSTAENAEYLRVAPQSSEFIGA

`C=CC(=O)N1CC[C@@H](Oc2nc(Nc3ccc(N4CCC(N5CCN(C)CC5)CC4)cc3)c(C(N)=O)nc2CC)C1` [Naquotinib] was tested. Which pIC50 (EGFR L858R/L718V) did it give?
The pIC50 was 7.73.

And the pIC50 (EGFR S720P)?
The pIC50 was 7.28.

And the pIC50 (EGFR L858R G724S)?
The pIC50 was 6.96.

What about the pIC50 (EGFR L718Q T790M) of the same molecule?
The pIC50 was 6.67.

And the pIC50 (EGFR l740duplPVAK)?
Its pIC50 is 7.17.

What about the pIC50 (EGFR Ex19del L718Q) of the same molecule?
Its pIC50 is 8.58.

And the pIC50 (EGFR L858R T790M V843I)?
Its pIC50 is 8.69.

And the pIC50 (EGFR L858R/L792H)?
The pIC50 was 7.46.

What about the pIC50 (EGFR G719A/R776C) of the same molecule?
The pIC50 was 7.41.

What about the pIC50 (EGFR S768I/V769L) of the same molecule?
The pIC50 was 6.63.

And the pIC50 (EGFR Ex19del L718V)?
The pIC50 was 7.86.

What about the pIC50 (EGFR Ex19delT790M L718V) of the same molecule?
The pIC50 was 8.11.

And the pIC50 (EGFR L861Q)?
Its pIC50 is 7.11.

What about the pIC50 (EGFR E709K G719S) of the same molecule?
The pIC50 was 7.82.

And the pIC50 (EGFR L747S)?
The pIC50 was 6.92.

And the pIC50 (EGFR L718Q)?
The pIC50 was 6.13.

And the pIC50 (EGFR N771dupN G724S)?
The pIC50 was 6.43.

And the pIC50 (EGFR S768I V774M)?
The pIC50 was 7.18.

And the pIC50 (EGFR E709K L858R)?
Its pIC50 is 7.96.

And the pIC50 (EGFR H773insNPH)?
Its pIC50 is 6.84.
